Patent US20190374554A1, “USE OF OXYGENATED CHOLESTEROL SULFATES (OCS) TO TREAT INFLAMMATORY SKIN DISEASE AND SKIN LESIONS” (Virginia Commonwealth University, priority 2016, published 2019)
“And” between values parts separate entries of the source, which are not always exact repeats. Equal values may be shown once.

Tests used:
[1] = test system: Hannover Wistar rats; assay: Acute single dose intramuscular (IM) injection study in rats; format: in vivo; details: minimal to moderate, drug-treated vs vehicle
Procedure: For the acute single dose study, Hannover Wistar rats (n=5/sex/dose group) received a single IM injection followed by 2 and 14 day observation periods. The solution that was tested included 30 mg/mL of 25HC3S sodium salt in vehicle (250 mg/mL hydroxypropyl-β-cyclodextrin in 10 mM sodium phosphate buffer in sterile water). Dose levels of 0 (vehicle), 3, 10 and 30 mg/kg of 25HC3S sodium salt were administered in dose volumes of 1.0, 0.1, 0.3 and 1.0 mL/kg. […] The changes were less severe (minimal only) after 14 days, indicating partial recovery; no clear effect of the presence of 25HC3S or vehicle volume was observed.

[2] = test system: Hannover Wistar rats; assay: Two-week subcutaneous (SC) injection study in rats; format: in vivo
Procedure: In a separate study, Hannover Wistar rats (n=12/sex/dose group) received daily SC injections of a solution of 30 mg/mL of 25HC3S sodium salt in vehicle (250 mg/mL hydroxypropyl-β-cyclodextrin in 10 mM sodium phosphate buffer in sterile water) for 2 weeks. Dose levels of 0 (vehicle), 15, 45 and 150 mg/kg of 25HC3S sodium salt were administered in dose volumes of 5.0, 0.5, 1.5 and 5.0 mL/kg. Following 14 days of dose administration, all rats were euthanized and necropsied

[3] = Infusion compatibility: 25HC3S diluted in 5% dextrose infusion bag and eluted through infusion sets (potency, osmolality, pH, appearance); format: physicochemical; details: for 24 Hours at 2-8° C. Concentration / 24 Hours at 2-8° C. Osmolality / 24 Hours at 2-8° C. pH / 24 Hours at 25° C. % Remaining Compared to T = 0 / 24 Hours at 25° C. Concentration / 24 Hours at 25° C. Osmolality / 24 Hours at 25° C. pH / T = 0 Conc. / T = 0 Osmolality / T = 0 pH: 5% dextrose bag; for After Storage in Infusion Bag and Collection from Infusion Set % Remaining Compared to T = 0 / After Storage in Infusion Bag and Collection from Infusion Set Concentration / After Storage in Infusion Bag and Collection from Infusion Set Osmolality / After Storage in Infusion Bag and Collection from Infusion Set pH: 5% dextrose, approx. 0.28 mg/mL, bag 24 h at 2-8° C.
Procedure: A physical and chemical compatibility study was conducted at a 30 mg, 48 mg and 300 mg 25HC3S dose in 5% dextrose and 0.9% sodium chloride infusion bags. Descriptions of the two kinds of infusion sets tested with 25HC3S product diluted in 5% dextrose and 0.9% sodium chloride are listed in Table 15. The tubing in catalog number 2H8480 infusion set was composed of polyvinylchloride (PVC), while the tubing in catalog number 2C8858 was polyethylene lined except for a short pump segment (approximately 12 inches) which was composed of PVC.
25HC3S for Injection and Vehicle for 25HC3S for Injection, that had been stored at 2-8° C. for approximately 16 months, were used for the compatibility study. After constitution, 30 mg (1.0 mL of constituted product), 48 mg (1.6 mL of constituted product) or 300 mg (10 mL of constituted product) were added to 100 mL infusion bags of 5% dextrose and 0.9% sodium chloride, mixed thoroughly, and stored for 24 hours at room temperature and at 2-8° C. […] Taking into consideration the overfill per infusion bag and the additional volume introduced by adding the constituted 25HC3S product to each bag, the expected concentrations of 25HC3S were 0.28 mg/mL, 0.44 mg/mL, and 2.56 mg/mL in the infusion bags. Two kinds of infusion sets were then attached to the drug containing infusion bags, and the entire contents were eluted through the infusion sets at approximately 50 mL/hour at room temperature. Samples were collected from the 25HC3S prepared infusion bags at T=0 and at 24 hours, and from the total eluent passed through the infusion sets, and tested for 25HC3S concentration using HPLC. Solution visual appearance, osmolality (using method USP<785>), and pH (using method USP<791>) were also measured on the collected samples.

Q: Which results are given for `C[C@H](CCCC(C)(C)O)[C@H]1CC[C@H]2[C@@H]3CC=C4C[C@@H](OS(=O)(=O)[O-])CC[C@]4(C)[C@H]3CC[C@]12C.[Na+]` [Formulation 25HC3S, 5-cholesten-3, 25-diol, 3-sulfate]?
A: muscle degeneration/regeneration, hemorrhage and inflammation in injected muscles [1]: incidence and severity similar in vehicle and drug-treated rats; higher mean liver weights compared to controls ([2]; male and female rats, 150 mg/kg daily SC, 2 weeks): 10%; lower mean serum cholesterol compared to vehicle controls ([2]; male rats, 150 mg/kg daily SC, after 2 weeks): 22%; Cytoplasmic vacuolation of the proximal tubules of the kidneys ([2]; rats, 150 mg/kg daily SC, 2 weeks, vs vehicle controls): severity was similar in vehicle control and rats; collagen degeneration and hemorrhage at the injection sites ([2]; rats, daily SC 2 weeks, compared to vehicle (FIG. 1A)): tended to be lower; alveolar macrophages in the lungs ([2]; rats, daily SC 2 weeks, seen in vehicle controls and drug-treated rats): minimal increase; 24 Hours at 2-8° C. Concentration ([3]; approx. 0.28 mg/mL 25HC3S): 0.280 mg/mL; 24 Hours at 2-8° C. Osmolality ([3]; approx. 0.28 mg/mL 25HC3S): 250 mmol/kg and 253 mmol/kg; 24 Hours at 2-8° C. pH ([3]; approx. 0.28 mg/mL 25HC3S): 7.09 and 7.04; 24 Hours at 25° C. % Remaining Compared to T = 0 ([3]; approx. 0.28 mg/mL 25HC3S): (100.0%); 24 Hours at 25° C. Concentration ([3]; approx. 0.28 mg/mL 25HC3S): 0.276 mg/mL and 0.277 mg/mL; 24 Hours at 25° C. Osmolality ([3]; approx. 0.28 mg/mL 25HC3S): 252 mmol/kg and 249 mmol/kg; 24 Hours at 25° C. pH ([3]; approx. 0.28 mg/mL 25HC3S): 7.12 and 7.05; T = 0 Conc. ([3]; approx. 0.28 mg/mL 25HC3S): 0.276 mg/mL and 0.277 mg/mL and 0.280 mg/mL and 0.279 mg/mL; T = 0 Osmolality ([3]; approx. 0.28 mg/mL 25HC3S): 247 mmol/kg and 250 mmol/kg and 251 mmol/kg; T = 0 pH ([3]; approx. 0.28 mg/mL 25HC3S): 7.09 and 7.03 and 7.10 and 7.04; 24 Hours at 2-8° C. Concentration ([3]; approx. 0.44 mg/mL 25HC3S): 0.438 mg/mL and 0.440 mg/mL; 24 Hours at 2-8° C. Osmolality ([3]; approx. 0.44 mg/mL 25HC3S): 254 mmol/kg and 257 mmol/kg; 24 Hours at 2-8° C. pH ([3]; approx. 0.44 mg/mL 25HC3S): 6.96 and 6.93; 24 Hours at 25° C. % Remaining Compared to T = 0 ([3]; approx. 0.44 mg/mL 25HC3S): (100.0%); 24 Hours at 25° C. Concentration ([3]; approx. 0.44 mg/mL 25HC3S): 0.447 mg/mL and 0.442 mg/mL; 24 Hours at 25° C. Osmolality ([3]; approx. 0.44 mg/mL 25HC3S): 256 mmol/kg and 253 mmol/kg; 24 Hours at 25° C. pH ([3]; approx. 0.44 mg/mL 25HC3S): 6.91 and 6.90; T = 0 Conc. ([3]; approx. 0.44 mg/mL 25HC3S): 0.447 mg/mL and 0.442 mg/mL and 0.439 mg/mL; T = 0 Osmolality ([3]; approx. 0.44 mg/mL 25HC3S): 255 mmol/kg and 254 mmol/kg and 256 mmol/kg; T = 0 pH ([3]; approx. 0.44 mg/mL 25HC3S): 6.83 and 6.81 and 6.82 and 6.88; 24 Hours at 2-8° C. Concentration ([3]; approx. 2.56 mg/mL 25HC3S): 2.550 mg/mL and 2.530 mg/mL; 24 Hours at 2-8° C. Osmolality ([3]; approx. 2.56 mg/mL 25HC3S): 246 mmol/kg and 251 mmol/kg; 24 Hours at 2-8° C. pH ([3]; approx. 2.56 mg/mL 25HC3S): 6.11 and 6.14; 24 Hours at 25° C. Concentration ([3]; approx. 2.56 mg/mL 25HC3S): 2.470 mg/mL and 2.520 mg/mL; 24 Hours at 25° C. Osmolality ([3]; approx. 2.56 mg/mL 25HC3S): 257 mmol/kg and 250 mmol/kg; 24 Hours at 25° C. pH ([3]; approx. 2.56 mg/mL 25HC3S): 6.12 and 6.06; T = 0 Conc. ([3]; approx. 2.56 mg/mL 25HC3S): 2.500 mg/mL and 2.510 mg/mL and 2.530 mg/mL and 2.525 mg/mL; T = 0 Osmolality ([3]; approx. 2.56 mg/mL 25HC3S): 258 mmol/kg and 247 mmol/kg; T = 0 pH ([3]; approx. 2.56 mg/mL 25HC3S): 6.04 and 6.12 and 6.29 and 6.26; After Storage in Infusion Bag and Collection from Infusion Set % Remaining Compared to T = 0 ([3]; Baxter 2C8858): (100.4%); After Storage in Infusion Bag and Collection from Infusion Set Concentration ([3]; Baxter 2C8858): 0.280 mg/mL; After Storage in Infusion Bag and Collection from Infusion Set Osmolality ([3]; Baxter 2C8858): 252 mmol/kg; After Storage in Infusion Bag and Collection from Infusion Set pH ([3]; Baxter 2C8858): 6.99; After Storage in Infusion Bag and Collection from Infusion Set % Remaining Compared to T = 0 ([3]; Baxter 2H8480): (100.0%); After Storage in Infusion Bag and Collection from Infusion Set Concentration ([3]; Baxter 2H8480): 0.280 mg/mL; After Storage in Infusion Bag and Collection from Infusion Set Osmolality ([3]; Baxter 2H8480): 251 mmol/kg; After Storage in Infusion Bag and Collection from Infusion Set pH ([3]; Baxter 2H8480): 6.95
